Measurements taken from PubChem BioAssay AID248 (DTP/NCI, 2004).
“And” between values parts separate entries of the source, which are not always exact repeats. Equal entries are not always repeated. Inconclusive results and toxic doses are left out. No stated cut-off is given here; in the data, active means T/C of 150% or more; inactive means T/C below 125%.

System: L1210 leukemia ip in BDF1 mice, survival T/C
Assay: NCI In Vivo Anticancer Drug Screen. Data for tumor model L1210 Leukemia (intraperitoneal) in B6D2F1 (BDF1) mice
Conditions: endpoint: mean survival time, higher = longer survival
How it was run: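 Value reflects the ratio of survival in compound-treated mice to survival in vehicle-treated controls, with both groups carrying the same transplanted tumor.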

[1] = dose: 100.0 mg/kg/injection, schedule: Q01DX001 (ip), vehicle: saline
[2] = dose: 50.0 mg/kg/injection, schedule: Q01DX001 (ip), vehicle: saline
[3] = dose: 200.0 mg/kg/injection, schedule: Q01DX001 (ip), vehicle: saline
[4] = dose: 400.0 mg/kg/injection, schedule: Q01DX001 (ip), vehicle: saline
[5] = dose: 400.0 mg/kg/injection, schedule: Q01DX009 (ip), vehicle: saline
[6] = dose: 100.0 mg/kg/injection, schedule: Q01DX009 (ip), vehicle: Klucel (hydroxypropylcellulose) (HPC)
[7] = dose: 100.0 mg/kg/injection, schedule: Q04DX003 (ip), vehicle: Klucel (hydroxypropylcellulose) (HPC)
[8] = dose: 200.0 mg/kg/injection, schedule: Q01DX009 (ip), vehicle: Klucel (hydroxypropylcellulose) (HPC)
[9] = dose: 200.0 mg/kg/injection, schedule: Q04DX003 (ip), vehicle: Klucel (hydroxypropylcellulose) (HPC)
[10] = dose: 400.0 mg/kg/injection, schedule: Q01DX009 (ip), vehicle: Klucel (hydroxypropylcellulose) (HPC)
[11] = dose: 400.0 mg/kg/injection, schedule: Q04DX003 (ip), vehicle: Klucel (hydroxypropylcellulose) (HPC)
[12] = dose: 50.0 mg/kg/injection, schedule: Q01DX009 (ip), vehicle: saline
[13] = dose: 100.0 mg/kg/injection, schedule: Q01DX009 (ip), vehicle: saline

Measured: T/C

C=C(NC(=O)CNC(=O)CN)C(=O)O
inactive: dose: 100.0 mg/kg/injection, schedule: Q04DX002 (ip), vehicle: saline with Tween-80 105 % of control | dose: 200.0 mg/kg/injection, schedule: Q04DX002 (ip), vehicle: saline with Tween-80 102 % of control | dose: 400.0 mg/kg/injection, schedule: Q04DX002 (ip), vehicle: saline with Tween-80 102 % of control

CN(C)CC/C=C1\c2ccccc2C(C)(C)c2ccc(Cl)cc21
inactive: dose: 2.0 mg/kg/injection, schedule: Q01DX015 (ip), vehicle: carboxymethylcellulose (CMC) 97 % of control | dose: 4.0 mg/kg/injection, schedule: Q01DX015 (ip), vehicle: carboxymethylcellulose (CMC) 96 % of control | dose: 8.0 mg/kg/injection, schedule: Q01DX015 (ip), vehicle: carboxymethylcellulose (CMC) 92 % of control | dose: 12.5 mg/kg/injection, schedule: Q01DX009 (ip), vehicle: acetone 86 % of control | dose: 16.0 mg/kg/injection, schedule: Q01DX015 (ip), vehicle: carboxymethylcellulose (CMC) 102 % of control and 91 % of control | dose: 25.0 mg/kg/injection, schedule: Q01DX009 (ip), vehicle: acetone 94 % of control | dose: 25.0 mg/kg/injection, schedule: Q04DX003 (ip), vehicle: saline 96 % of control | dose: 32.0 mg/kg/injection, schedule: Q01DX015 (ip), vehicle: carboxymethylcellulose (CMC) 98 % of control | dose: 50.0 mg/kg/injection, schedule: Q04DX003 (ip), vehicle: saline 91 % of control | [1] 87 % of control

C=C1C(=O)OCC2C(C(=O)O)=CC3C(C)C(C)=CC123 (configuration not stated)
inactive: dose: 20.0 mg/kg/injection, schedule: Q01DX009 (ip), vehicle: saline with Tween-80 108 % of control | dose: 40.0 mg/kg/injection, schedule: Q01DX009 (ip), vehicle: saline with Tween-80 111 % of control

COc1ccc(CN2CCCN(Cc3ccc(OC)cc3OC)C2c2cccc(F)c2)c(OC)c1
inactive: [2] 89 % of control | [1] 89 % of control | [3] 100 % of control | [4] 91 % of control

O=c1[nH]c(=S)[nH]c(=S)[nH]1
inactive: dose: 100.0 mg/kg/injection, schedule: Q01DX Z (ip), vehicle: methylcellulose (MC) 97 % of control | dose: 200.0 mg/kg/injection, schedule: Q01DX Z (ip), vehicle: methylcellulose (MC) 104 % of control

CC1(C)N=C(N)N=C(N)N1c1ccc(OCCOc2ccc(NC(=O)CBr)cc2)cc1
inactive: dose: 120.0 mg/kg/injection, schedule: Q01DX009 (ip), vehicle: saline 124 % of control | dose: 176.0 mg/kg/injection, schedule: Q01DX009 (ip), vehicle: saline 112 % of control | dose: 266.0 mg/kg/injection, schedule: Q01DX009 (ip), vehicle: saline 107 % of control | [5] 98 % of control

CC(=O)CC(C)=NCCN=C(C)CC(C)=O
inactive: dose: 100.0 mg/kg/injection, schedule: Q01DX009 (ip), vehicle: saline with Tween-80 91 % of control | dose: 200.0 mg/kg/injection, schedule: Q01DX009 (ip), vehicle: saline with Tween-80 94 % of control | dose: 400.0 mg/kg/injection, schedule: Q01DX009 (ip), vehicle: saline with Tween-80 92 % of control

CCOC(=O)c1ccc(NC(=S)NC(=O)c2cccc3ccccc23)cc1
inactive: dose: 100.0 mg/kg/injection, schedule: Q04DX002 (ip), vehicle: other 91 % of control and 92 % of control | dose: 200.0 mg/kg/injection, schedule: Q04DX002 (ip), vehicle: other 97 % of control and 91 % of control | dose: 400.0 mg/kg/injection, schedule: Q04DX002 (ip), vehicle: other 102 % of control and 91 % of control

CN(C)[C@@H]1C(=O)C(C(=O)NCNc2cccc(C(=O)O)c2C(=O)O)=C(O)[C@@]2(O)C(=O)C3=C(O)c4c(O)cccc4[C@@](C)(O)[C@H]3C[C@@H]12
inactive: dose: 100.0 mg/kg/injection, schedule: Q01DX Z (ip), vehicle: saline 110 % of control | dose: 150.0 mg/kg/injection, schedule: Q01DX Z (ip), vehicle: saline 105 % of control | dose: 225.0 mg/kg/injection, schedule: Q01DX Z (ip), vehicle: saline 104 % of control | dose: 340.0 mg/kg/injection, schedule: Q01DX Z (ip), vehicle: saline 103 % of control

CCOC(=O)c1oc2c(C(C)=O)c(O)ccc2c1C
inactive: dose: 100.0 mg/kg/injection, schedule: Q04DX002 (ip), vehicle: Klucel (hydroxypropylcellulose) (HPC) 101 % of control and 103 % of control and 92 % of control | dose: 200.0 mg/kg/injection, schedule: Q04DX002 (ip), vehicle: Klucel (hydroxypropylcellulose) (HPC) 101 % of control and 103 % of control and 92 % of control | dose: 400.0 mg/kg/injection, schedule: Q04DX002 (ip), vehicle: Klucel (hydroxypropylcellulose) (HPC) 108 % of control | dose: 800.0 mg/kg/injection, schedule: Q04DX002 (ip), vehicle: Klucel (hydroxypropylcellulose) (HPC) 93 % of control and 95 % of control

c1ccc(CN=C2c3ccccc3C3(c4ccccc4)C2N3Cc2ccccc2)cc1 (configuration not stated)
inactive: [6] 103 % of control | [7] 98 % of control | [8] 103 % of control | [9] 101 % of control | [10] 103 % of control | [11] 97 % of control

S=c1nc[nH]c2c1ncn2C1OC(COCc2ccccc2)C(OCc2ccccc2)C1OCc1ccccc1 (configuration not stated)
inactive: [2] 93 % of control | [1] 102 % of control | [3] 93 % of control | [4] 96 % of control

Cc1ccc(-c2nnc3n2C(C)(C)N=C(N)N3)cc1
inactive: dose: 100.0 mg/kg/injection, schedule: Q04DX003 (ip), vehicle: saline with Tween-80 105 % of control | dose: 200.0 mg/kg/injection, schedule: Q04DX003 (ip), vehicle: saline with Tween-80 91 % of control | dose: 400.0 mg/kg/injection, schedule: Q04DX003 (ip), vehicle: saline with Tween-80 101 % of control

CN(CCN(C)C(=S)S)C(=S)S
inactive: dose: 100.0 mg/kg/injection, schedule: Q01DX002 (ip), vehicle: saline 99 % of control | dose: 200.0 mg/kg/injection, schedule: Q01DX002 (ip), vehicle: saline 99 % of control | dose: 400.0 mg/kg/injection, schedule: Q01DX002 (ip), vehicle: saline 105 % of control

CNc1nc(NC)nc(NC)n1
inactive: dose: 12.5 mg/kg/injection, schedule: Q01DX009 (ip), vehicle: Klucel (hydroxypropylcellulose) (HPC) 102 % of control | dose: 25.0 mg/kg/injection, schedule: Q01DX009 (ip), vehicle: Klucel (hydroxypropylcellulose) (HPC) 102 % of control | dose: 50.0 mg/kg/injection, schedule: Q01DX009 (ip), vehicle: Klucel (hydroxypropylcellulose) (HPC) 98 % of control | [6] 98 % of control | [8] 100 % of control

FC(F)(F)COP1(OCC(F)(F)F)=NP(OCC(F)(F)F)(OCC(F)(F)F)=NP(c2ccccc2)(c2ccccc2)=N1
inactive: dose: 25.0 mg/kg/injection, schedule: Q01DX009 (ip), vehicle: saline 93 % of control | [12] 96 % of control | [13] 86 % of control

Cc1ccc(C)c(NC(=O)NC(C)C)c1
inactive: [6] 94 % of control | [7] 96 % of control | [8] 94 % of control | [9] 91 % of control | [10] 91 % of control | [11] 89 % of control

Cc1cccc(C)c1NC(=O)N(Cc1ccccc1)Cc1ccccc1
inactive: [6] 98 % of control | [8] 112 % of control | [10] 110 % of control

CN1CCCCC(c2ccccc2)(c2ccccc2)C1=N
inactive: dose: 37.5 mg/kg/injection, schedule: Q01DX001 (ip), vehicle: saline 100 % of control

NC(=O)CCSCCC(N)=O
inactive: [13] 114 % of control | dose: 200.0 mg/kg/injection, schedule: Q01DX009 (ip), vehicle: saline 118 % of control | [5] 111 % of control

O=S1(=O)C(c2ccccc2)=Cc2cccn2-c2ccccc21
inactive: [7] 95 % of control | [9] 104 % of control | [11] 98 % of control

Cn1c(=O)cc(CCl)c2ccccc21
inactive: dose: 100.0 mg/kg/injection, schedule: Q01DX001 (ip), vehicle: other 105 % of control

CN(C)/N=N/c1nc[nH]c1C(N)=O.[Cl][Cu][Cl]
inactive: dose: 9.5 mg/kg/injection, schedule: Q01DX001 (ip), vehicle: saline 103 % of control | dose: 19.0 mg/kg/injection, schedule: Q01DX001 (ip), vehicle: saline 95 % of control | dose: 38.0 mg/kg/injection, schedule: Q01DX001 (ip), vehicle: saline 101 % of control

CCNCCCOCC
inactive: [12] 91 % of control | dose: 100.0 mg/kg/injection, schedule: Q04DX003 (ip), vehicle: saline 103 % of control | dose: 200.0 mg/kg/injection, schedule: Q04DX003 (ip), vehicle: saline 95 % of control

COC(=O)c1c[nH]c2ccccc2c1=O
inactive: [6] 106 % of control | [7] 96 % of control | [8] 95 % of control | [9] 107 % of control | [10] 108 % of control | [11] 91 % of control
